Patent EP0747355A1, “NOVEL CARBAMATE DERIVATIVE AND MEDICINAL COMPOSITION CONTAINING THE SAME” (priority 1994, dated 1995)
Like-named read-outs stand apart in the source and are kept apart here.

Key:
[1] = test system: salivary secretion in rat; assay: Test on salivary secretion in rat (oxotremorine-induced); type: in vivo, Male Wistar rats
[2] = test system: rhythmic bladder contraction in rat; assay: Test on rhythmic bladder contraction in rat (in vivo muscarinic antagonism); parameters: species or system Wistar female rats
[3] = biological target: T1, Muscarinic M3 receptor (Rattus norvegicus, UniProt P08483); assay: Muscarinic M3 receptor binding test (submandibular gland membranes, [3H]-N-methylscopolamine); parameters: species or system Wistar male rats
T1 construct: except that submandibular gland membranes were used and [^3H]-N-methylscopolamine was used as the labeled ligand; from tissue; host or cells: rat submandibular gland membranes (Wistar male rats, Nippon SLC)

[4] = biological target: T2, muscarinic M2 receptors (Rattus norvegicus, UniProt P10980); assay: biochemical; type: binding, Wistar male rats
T2 sequence (P10980 1-466): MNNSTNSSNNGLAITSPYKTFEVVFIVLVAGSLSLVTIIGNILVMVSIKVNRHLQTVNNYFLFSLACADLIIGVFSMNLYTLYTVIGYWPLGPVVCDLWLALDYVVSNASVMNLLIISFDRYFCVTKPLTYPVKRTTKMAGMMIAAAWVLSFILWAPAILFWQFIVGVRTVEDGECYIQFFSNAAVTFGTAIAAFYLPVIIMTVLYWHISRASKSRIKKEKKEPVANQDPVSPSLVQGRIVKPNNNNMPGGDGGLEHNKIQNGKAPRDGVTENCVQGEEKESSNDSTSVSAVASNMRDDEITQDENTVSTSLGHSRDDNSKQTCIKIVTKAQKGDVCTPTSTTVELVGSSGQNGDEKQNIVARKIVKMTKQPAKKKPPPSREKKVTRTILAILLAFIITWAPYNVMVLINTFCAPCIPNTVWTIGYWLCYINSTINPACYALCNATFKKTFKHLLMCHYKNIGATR

[5] = test system: bronchospasm in guinea pig; type: in vivo, Hartley male guinea pig
[6] = oxotremorine 0.8 µmol/kg 15 minutes after compound, saliva of 5 minutes
[7] = urethane anesthesia, cumulative i.v. administration, 30% inhibition of peak bladder contractions
[8] = rat submandibular gland membranes, [3H]-N-methylscopolamine, read-out: Ki (nM) M3 binding Test
[9] = read-out: Ki (nM) M2 binding Test
[10] = methacholine 5 µg/kg i.v., 3 minutes after compound i.v.

T1 sequence (P08483 whole entry): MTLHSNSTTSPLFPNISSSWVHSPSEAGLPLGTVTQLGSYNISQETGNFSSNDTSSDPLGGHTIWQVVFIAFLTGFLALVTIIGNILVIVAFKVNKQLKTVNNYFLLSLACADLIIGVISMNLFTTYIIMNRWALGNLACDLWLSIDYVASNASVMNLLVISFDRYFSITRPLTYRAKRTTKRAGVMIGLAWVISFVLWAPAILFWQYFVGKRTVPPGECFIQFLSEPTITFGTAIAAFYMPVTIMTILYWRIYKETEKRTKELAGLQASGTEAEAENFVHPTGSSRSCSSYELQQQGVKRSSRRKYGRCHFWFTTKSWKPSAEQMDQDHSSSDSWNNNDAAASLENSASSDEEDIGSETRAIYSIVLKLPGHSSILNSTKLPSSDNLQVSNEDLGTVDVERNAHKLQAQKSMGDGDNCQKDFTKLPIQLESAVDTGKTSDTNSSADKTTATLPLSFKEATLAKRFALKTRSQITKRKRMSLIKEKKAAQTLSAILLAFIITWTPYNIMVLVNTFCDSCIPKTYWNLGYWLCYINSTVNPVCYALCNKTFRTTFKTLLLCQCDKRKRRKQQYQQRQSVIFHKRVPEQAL

Row | Molecule | Salivary Secretion Test ED50 (mg/kg i.v.) [1, 6] [mg/kg i.v.] | Rhythmic Bladder Contraction Test ED30 (mg/kg i.v.) [2, 7] [mg/kg i.v.] | M2/M3 ([3]; ratio of Ki M2 to Ki M3) | Bronchospasm Test ID50 (mg/kg i.v.) ([5]; in vivo, iv) | Ki [3] [nM] | Ki [4] [nM] | other results
1 | 3-Quinuclidinyl N-[2-(2-cyclohexen-1-yl)phenyl]carbamate hemioxalate [Example 61] | 0.14 | 0.029 | – | – | – | – | –
2 | 3-quinuclidinyl N-[2-(1H-pyrrol-1-yl)phenyl]carbamate monohydrochloride [Example 2] | 0.11 | 0.018 | 20.4 | – | – | – | Ki [3, 8]: 4.89 nM; Ki [4, 9]: 100 nM
3 | CN1[C@@H]2CC[C@H]1C[C@@H](OC(=O)C(CO)c1ccccc1)C2 (some centres unmarked) [Atropine, reference compound] | – | – | – | 0.0008 | – | – | Salivary Secretion Test ED50 (mg/kg i.v.) ([1]; in vivo, iv): 0.0084 mg/kg i.v.; Rhythmic Bladder Contraction Test ED30 (mg/kg i.v.) ([2]; in vivo, iv): 0.009 mg/kg i.v.
4 | Cl.O=C(Nc1ccccc1-c1ccccc1)OC1CN2CCC1CC2 (centres unmarked) [Example 1, 3-quinuclidinyl N-(2-biphenylyl)carbamate monohydrochloride] | – | – | 27.6 | – | 0.94 | 25.9 | Bronchospasm Test ID50 (mg/kg i.v.) [5, 10]: 0.0045 mg/kg i.v.
5 | C[N+]12CCC(CC1)C(OC(=O)Nc1ccccc1-c1ccccc1)C2.[I-] (centres unmarked) [Example 3, 3-[[N-(2-biphenylyl)carbamoyl]oxy]-1-methylquinuclidinium iodide] | – | – | 25.7 | – | 0.56 | 14.4 | Bronchospasm Test ID50 (mg/kg i.v.) [5, 10]: 0.0038 mg/kg i.v.
6 | Cl.O=C(Nc1ccccc1-c1ccccc1)OC12CCN(CC1)CC2 [Example 4, 4-quinuclidinyl N-(2-biphenylyl)carbamate monohydrochloride] | – | – | – | 0.0082 | 0.39 | 5.89 | Salivary Secretion Test ED50 (mg/kg i.v.) ([1]; in vivo, iv): 0.10 mg/kg i.v.; Rhythmic Bladder Contraction Test ED30 (mg/kg i.v.) ([2]; in vivo, iv): 0.014 mg/kg i.v.; M2/M3 [3]: 15.2
7 | C[N+]1(C)CCC(OC(=O)Nc2ccccc2-c2ccccc2)CC1.[I-] [Example 7, 4-[[N-(2-biphenylyl)carbamoyl]oxy]-1,1-dimethylpiperidinium iodide] | – | – | 25.8 | 0.0054 | – | – | Ki [3, 8]: 0.57 nM; Ki [4, 9]: 14.7 nM
8 | O=C(Nc1ccccc1-c1ccccc1)OC1CCN(Cc2cccc(O)c2)CC1.O=C(O)C(=O)O [Example 15, 1-(3-Hydroxybenzyl)-4-piperidyl N-(2-biphenylyl)carbamate monooxalate] | 0.36 | 0.058 | – | – | – | – | –
9 | CCN(CC)CC#CCOC(=O)C(O)(c1ccccc1)C1CCCCC1 (centres unmarked) [Oxybutynin, reference compound] | 0.18 | 0.24 | – | – | – | – | –
